The structures appear in SMILES notation. Read-outs that look alike come from different tables or passages of the source. Bounds are passed on as bounds.

Series [1] relates to luciferase reaction (BacTiter-Glo). As to the kind of experiment: Interference assay (inhibition of the BacTiter-Glo luciferase reaction). Type of series: biochemical. Also on record: concentration or dose not given beside the values. The following applies: ATP interference assay. The protocol:
To discard possible false-positive results, we performed an interference assay in parallel. […] […]. The ATP solution was made by dissolving ATP powder (ATP standard from the ATPlite 1 step assay kit, reference 6016731, Perkin Elmer) in culture medium. The positive control used was the Luciferase Inhibitor I Calbiochem (Merck, 119113) at 100 μM.

For series [2], the system named is P. falciparum stage V gametocytes. As to the kind of experiment: Gametocytocidal ATP bioluminescence assay (single point 5 μM and 1 μM, dose-response). It is filed as cell-based, Plasmodium falciparum. As to conditions: for Ratio IC50 HepG2/IC50 P. falciparum: IC50 HepG2 divided by IC50 P. falciparum gametocytes.
Procedure: Purified stage IV-V gametocytes were obtained as previously described [10]. Single point ATP bioluminescence assay and dose–response of positive hits was determined in accordance with the previously published protocol [10].
The test system of series [3] is P. falciparum asexual stages. As to conditions: TCAMS data, cited from earlier work.
In series [4] the test system is KCa2.2, a calcium-dependent K+ channel. Also noted: method as in TCAMS annotation. As to conditions: target annotation in TCAMS; ref TCAMS annotation; cited from earlier work.
Another series deals with adenosine A3 receptor. Also on record: method as in TCAMS annotation. As to conditions: target annotation in TCAMS; ref TCAMS annotation; cited from earlier work.
A further series deals with HepG2 cells. The series is described as follows: Cytotoxicity in HepG2 cells (intracellular ATP, ATPlite, 48 h). As to conditions: for Ratio IC50 HepG2/IC50 P. falciparum: IC50 HepG2 divided by IC50 P. falciparum gametocytes. It is filed as cell-based, human. For orientation: Cellular ATP, detected with luciferase, serves as a proxy for viable cell number.
Experiment in series [5]: as above
It is filed as cell-based, human. The following applies: human, HepG2 cells.

In series [6] the test system is P. falciparum stage V gametocytes. As to the kind of experiment: microbe, parasite or virus in culture. Also on record: BacTiter-Glo ATP luminescence viability of stage V gametocytes, 11-point dose-response IC50. The following applies: Plasmodium falciparum, 48 h; sheet CSAanalogstable. Here is the method: Once purified, gametocytes were counted using a Neubauer chamber, and the density was adjusted to 2.5 x 10^5 gametocytes/mL. Fifty μL of the gametocyte suspension (1.25 x 10^4 gametocytes) were added to each well of the 384-well plate containing the compounds, using a Multidrop combi (Thermo Electron Corporation). Plates were shaken for 5 sec to homogenize and then incubated at 37°C for 48 h in an atmosphere of 5% CO2, 5% O2, 90% N2. The ATP level of each well was determined using the BacTiter-Glo reagent (Promega) according to the recommendations of the manufacturer. The BacTiter-Glo assay generates a ‘glow-type’ luminescent signal produced by the luciferase reaction, which consists of mono-oxygenation of luciferin catalyzed by luciferase in the presence of Mg^2+, ATP and molecular oxygen. The luminescence was measured using a plate reader (Victor V, Perkin Elmer). […] The background value was subtracted from every other value of the assay prior to further calculation. The average of 16 replicates of vehicle control (0.5% or 0.1% DMSO) represents 100% of signal. Related to this value, each test concentration was calculated as percentage of control. […] However, there was no significant correlation between compound IC50 values obtained against gametocytes and the inhibition of growth of P. falciparum asexual forms as previously determined for TCAMS [6] […]

Series [7] has the same test system. Also on record: BacTiter-Glo ATP luminescence viability of purified stage V gametocytes in 384-well plates, per cent inhibition versus DMSO. As to conditions: 48 h, 5 µM; inhibitor.
[8] abbreviates: Plasmodium falciparum, P. falciparum gametocytes, average, read-out: IC50 Pf Gametocytes average, IC50 (µM) average.
The mark [9] stands for this setting: P. falciparum asexual stages, read-out: IC50 (µM) Pf asexual stages.
[10] abbreviates: asexual stages, read-out: IC50 asexual.
Setting [11] is: IC50 per ratio column head, unit inferred, read-out: Cytotoxicity in HepG2.
[12] abbreviates: Plasmodium falciparum, sexual stages (gametocytes), dose-response, read-out: IC50 sexual.

Turning to `Clc1ccc(Nc2nc(-c3ccccn3)cs2)nc1` [TCMDC-123885], the “% Control luminiscence” value in [1] turned out to be 100%. The values for the IC50 in [2] (setting [8]), in series [3] (setting [9]) and in [3] (setting [10]) were 0.67 µM, 0.77 µM and 0.774 µM, respectively. Also, in series [4], the “reported as inhibitors of KCa2.2” value is reported as “inhibitors”.

As to `O=C(Nc1nc(-c2ccccn2)cc2ccccc12)c1cccc(Cl)c1` [TCMDC-123886], the “% Control luminiscence” value in series [1] came out at 100%. Also, the “reported as an adenosine A3 receptor ligand” value in the series on adenosine A3 receptor is “ligand”. Besides, the “Ratio IC50 HepG2/IC50 P. falciparum” value (in the series on HepG2 cells; in [2]) was >50 each time. Also, the IC50 at 48 h in series [5] (setting [11]) is > 25 µM. In addition, the IC50 in series [2] (setting [8]) was 0.5 µM; in series [2] (setting [12]) it was 0.497 µM; in series [3] (setting [9]), 0.75 µM; in series [3] (setting [10]), 0.754 µM.

On to `CC(C)c1ccc(NC(=S)NN=Cc2ccccn2)cc1` [TCMDC-125520], for which the “Ratio IC50 HepG2/IC50 P. falciparum” value (with HepG2 cells; in series [2]) was >1306 in each case. In addition, the IC50 at 48 h in series [5] (HepG2, 48 h exposure, intracellular ATP, read-out: IC50 (μM) Cytotoxicity HepG2) is 13 µM; in [5] (setting [11]), 12.8 µM. Besides, the IC50 in [6] was 9.8 nM; in series [2] (setting [8]), < 0.0098 µM; in [3] (setting [9]), 0.72 µM; in series [3] (setting [10]), 0.724 µM.

With `Cc1ccnc(Nc2nc(-c3ccccn3)cs2)c1` [TCMDC-125769], the IC50 in series [2] (setting [8]) is 0.0433 µM; in series [2] (Plasmodium falciparum, gametocytes (GC), value as repeated in the Clusters sheet, read-out: IC50 GC), 0.04 µM; in series [2] (setting [12]) it was 0.043 µM; in series [3] (setting [9]) it was 1 µM; in series [3] (setting [10]), 0.998 µM. The “reported as inhibitors of KCa2.2” value in [4] was “inhibitors”.

For the compound `CCC1=C(C[C@H]2NCCc3cc(OC)c(OC)cc32)C[C@H]2c3cc(OC)c(OC)cc3CCN2C1` [TCMDC-131825], the IC50 is > 25000 nM with HepG2 cells (HepG2 cells, IC50 per ratio column head, unit inferred); 300 nM in series [6]; 0.3 µM in [2] (P. falciparum gametocytes, average, read-out: IC50 Pf Gametocytes average, IC50 (µM) average); 0.31 µM in series [3] (setting [9]); 0.312 µM in series [3] (setting [10]). Further, the “Ratio IC50 HepG2/IC50 P. falciparum” value (in the series on HepG2 cells; in series [2]) was >83 throughout.

For the compound `NC(=O)c1ccccc1Nc1nc(Nc2ccn[nH]2)ncc1Cl` [TCMDC-134169], in series [7], the % Inhibition (in general, the relative decrease from the control value, in per cent) is -47.65%.

As to `Cc1ccccc1N1CCN(c2ccc(C(=O)NC3CC3)cn2)CC1` [TCMDC-134578], the “% Inhibition” value in series [7] amounted to 39.4%.

The values above are taken from article PMC4552634, “A New Set of Chemical Starting Points with Plasmodium falciparum Transmission-Blocking Potential for Antimalarial Drug Discovery” (PLoS ONE, 2015).
